Literature values as cited in patent US20190070181A1, “FORMULATION OF TICAGRELOR OR PHARMACEUTICALLY ACCEPTABLE SALT THEREOF” (Jiangsu Hengrui Medicine Co., Ltd., priority 2017, published 2019).

Assays:
[1] = not given; remark: listed apart in the source

average t1/2 (in vivo) | dose up to which the pharmacokinetics is linear (in vivo) | median tmax (oral administration) | average recovery of the radiation in feces (radiolabeled ticagrelor, feces) | average recovery of the radiation (radiolabeled ticagrelor, total) | average recovery of the radiation in urine (radiolabeled ticagrelor, urine) | solubility in water [1] | Compound | time the IPA effect can be maintained (platelet aggregation; 180 mg loading dose) | IPA maximum (platelet aggregation; 2-4 hours after 180 mg loading dose) | mean inhibition of platelet aggregation (IPA) (platelet aggregation; 0.5 hour after 180 mg loading dose)
about 7 hours | up to 1260 mg | about 1.5 hours | 58% | about 84% | 26% | almost insoluble in water | CCCSc1nc(N[C@@H]2C[C@H]2c2ccc(F)c(F)c2)c2nnn([C@@H]3C[C@H](OCCO)[C@@H](O)[C@H]3O)c2n1 [ticagrelor, (1S,2S,3R,5S)-3-[7-{[(1R,2S)-2-(3,4-difluorophenyl)cyclopropyl]amino}-5-(propylthio)-3H-[1,2,3]-triazolo[4,5-d]pyrimidin-3-yl]-5-(2-hydroxyethoxy)cyclopentane-1,2-diol] | 2 to 8 h | 89% | 41%
about 9 hours |  |  |  |  |  |  | CCCSc1nc(N[C@@H]2C[C@H]2c2ccc(F)c(F)c2)c2nnn([C@@H]3C[C@H](O)[C@@H](O)[C@H]3O)c2n1 [AR-C124910XX] |  |  | 
